The results in this text go back to US20240343706A1, “PIPERIDINE-2,6-DIONE DERIVATIVES WHICH BIND TO CEREBLON, AND METHODS OF USE THEREOF” (Captor Therapeutics S.A., priority 2019, published 2024).

SMILES strings stand for the structures.

One test relates to CK1α. Description: CK1α degradation assay, Kelly cell line (western blot densitometry). Type of test: cell-based. The following applies: Kelly cells; for % of protein reduction based on densitometry values, CK1α (24 H): summary Table 10, 20 μM (some compounds 10 and 20 μM); for % of CK1α protein reduction, based on densitometry values: 24 h. From the text:
(§1) After primary and secondary Ab staining, the membranes were washed and signals developed. The densitometry analysis was implemented to obtain the numeric values used later in the protein level evaluation process.

The test system of a further test is SALL4. Description: SALL4 degradation assay, Kelly cell line (western blot densitometry). Type of test: cell-based. The following applies: Kelly cells; for % of protein reduction based on densitometry values, SALL4 (24 H): summary Table 10, 20 μM (some compounds 10 and 20 μM); for % of SALL4 protein reduction, based on densitometry values: 24 h.
From the text: as §1
In general terms: In western blotting, separated proteins are transferred to a membrane and probed.

The test system of a further test is IKZF1. The experiment in a line: IKZF1 degradation assay, H929 cell line (western blot densitometry). Type of test: cell-based. Conditions: H929 cells; for % of protein reduction based on densitometry values, IKZF 1 (24 H): summary Table 10, 20 μM (some compounds 10 and 20 μM); for % of IKZF1 α protein reduction based on densitometry values: 24 h.
From the text: as §1

Test [1] has as its target CRBN-DDB1 protein complex (Homo sapiens, UniProt Q96SW2). The experiment in a line: Fluorescence polarization (FP) assay, displacement of Cy5-labelled thalidomide. Conditions: 25 nM CRBN-DDB1, 5 nM Cy5-labelled thalidomide, read-out: CRBN binding Ki. The procedure: CRBN-DDB1 protein complex was mixed with Cy5-labelled thalidomide and a compound to be tested (the “test compound”). […] The test solution was added to a 384-well assay plate.
The plate was spun-down (1 min, 1000 rpm, 22° C.) and then shaken using a VibroTurbulator for 10 min at room temperature (20-25° C.), with the frequency set to level 3. The assay plate with protein and the tracer was incubated for 60 min at room temperature (20-25° C.) prior to read-out with a plate reader.
The FP experiment was carried out with various concentrations of the test compounds in order to measure Ki values.

For a further test, the system named is IKZF3. The experiment in a line: IKZF3 degradation assay, H929 cell line (western blot densitometry). Type of test: cell-based. The following applies: H929 cells; for % of IKZF3 protein reduction based on densitometry values, IKZF3 Band I / % of IKZF3 protein reduction based on densitometry values, IKZF3 Band II: 24 h.

CRBN-DDB1 protein complex, sequence (Q96SW2 whole entry): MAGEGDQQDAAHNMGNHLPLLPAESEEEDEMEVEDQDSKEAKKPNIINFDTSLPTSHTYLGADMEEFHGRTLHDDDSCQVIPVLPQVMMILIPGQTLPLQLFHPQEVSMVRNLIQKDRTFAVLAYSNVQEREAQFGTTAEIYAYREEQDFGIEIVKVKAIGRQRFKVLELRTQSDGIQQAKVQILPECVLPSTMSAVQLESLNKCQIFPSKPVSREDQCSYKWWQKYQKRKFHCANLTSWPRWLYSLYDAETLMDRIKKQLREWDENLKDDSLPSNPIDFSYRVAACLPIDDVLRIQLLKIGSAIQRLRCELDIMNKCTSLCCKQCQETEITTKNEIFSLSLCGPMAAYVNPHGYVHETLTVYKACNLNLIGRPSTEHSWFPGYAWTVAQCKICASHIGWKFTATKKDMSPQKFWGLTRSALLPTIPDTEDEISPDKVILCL
CRBN-DDB1 protein complex, sequence (Q16531 whole entry partner): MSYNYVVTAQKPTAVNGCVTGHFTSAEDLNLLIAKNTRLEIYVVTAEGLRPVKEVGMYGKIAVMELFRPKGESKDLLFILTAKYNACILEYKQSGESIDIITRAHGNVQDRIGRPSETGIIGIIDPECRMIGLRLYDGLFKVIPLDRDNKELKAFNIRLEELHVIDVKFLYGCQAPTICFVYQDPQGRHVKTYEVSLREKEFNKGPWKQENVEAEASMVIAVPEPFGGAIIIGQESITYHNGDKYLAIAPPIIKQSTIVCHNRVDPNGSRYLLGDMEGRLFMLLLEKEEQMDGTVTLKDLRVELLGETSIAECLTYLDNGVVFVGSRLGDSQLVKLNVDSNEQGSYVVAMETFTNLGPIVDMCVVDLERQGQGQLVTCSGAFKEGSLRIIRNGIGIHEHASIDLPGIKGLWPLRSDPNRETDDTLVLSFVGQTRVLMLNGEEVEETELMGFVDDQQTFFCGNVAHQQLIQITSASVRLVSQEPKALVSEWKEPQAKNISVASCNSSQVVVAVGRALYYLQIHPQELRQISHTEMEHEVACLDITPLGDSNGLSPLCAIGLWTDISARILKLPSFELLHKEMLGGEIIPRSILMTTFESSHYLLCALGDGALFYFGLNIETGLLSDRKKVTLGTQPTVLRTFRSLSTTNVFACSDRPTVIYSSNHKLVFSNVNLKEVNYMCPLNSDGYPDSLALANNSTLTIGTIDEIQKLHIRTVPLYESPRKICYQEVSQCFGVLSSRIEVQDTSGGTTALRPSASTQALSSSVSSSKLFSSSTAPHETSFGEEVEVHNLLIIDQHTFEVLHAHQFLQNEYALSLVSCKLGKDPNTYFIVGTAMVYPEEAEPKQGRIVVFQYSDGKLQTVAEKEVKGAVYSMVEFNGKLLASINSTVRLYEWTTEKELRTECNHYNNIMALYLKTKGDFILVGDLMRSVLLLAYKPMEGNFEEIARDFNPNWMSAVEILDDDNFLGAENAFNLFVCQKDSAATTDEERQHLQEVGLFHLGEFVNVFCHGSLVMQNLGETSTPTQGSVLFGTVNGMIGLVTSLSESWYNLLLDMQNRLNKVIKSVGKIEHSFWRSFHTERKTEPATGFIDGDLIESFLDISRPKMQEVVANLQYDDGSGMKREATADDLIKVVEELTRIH

In general, Ki refers to the dissociation constant of the complex between target and ligand, obtained from inhibition or displacement. `O=C1CCC(NC(=O)c2cccc3c2NC(=O)C3)C(=O)N1` (centres unmarked) [Compound 1, N-(2,6-dioxopiperidin-3-yl)-2-oxoindoline-7-carboxamide]: the “% of protein reduction based on densitometry values, CK1α (24 H)” value (shortened to “% of protein reduction based … CK1α (24 H)”) in the test with CK1α was ≤25% (≤25% for 0-25% of CK1a protein reduction). The “% of protein reduction based on densitometry values, SALL4 (24 H)” value (“% of protein reduction based … SALL4 (24 H)” for short) in the test with SALL4 is given as ≤25% (≤25% for 0-25% of SALL4 protein reduction). In addition, the “% of protein reduction based on densitometry values, IKZF 1 (24 H)” value (“% of protein reduction based … IKZF 1 (24 H)” for short) in the test on IKZF1 is ≤25% (≤25% for 0-25% of IKZF1 protein reduction). Also, the Ki in test [1] fell in the range of 10 to 50 µM.
For the molecule `Cn1cnc2c(C(=O)NC3CCC(=O)NC3=O)cccc21` (centres unmarked) [Compound 4, N-(2,6-dioxopiperidin-3-yl)-1-methyl-1H-benzo[d]imidazole-4-carboxamide], the “% of protein reduction based … CK1α (24 H)” value in the test on CK1α is given as ≤25% (≤25% for 0-25% of CK1a protein reduction). The “% of protein reduction based … SALL4 (24 H)” value in the test with SALL4 is ≤25% (≤25% for 0-25% of SALL4 protein reduction). Besides, the “% of protein reduction based … IKZF 1 (24 H)” value in the test with IKZF1 is ≤25% (≤25% for 0-25% of IKZF1 protein reduction). Besides, the Ki in test [1] was 1 to 10 µM.
In the case of `O=C1CCC(NC(=O)c2c(F)ccc3[nH]cnc23)C(=O)N1` (centres unmarked) [Compound 7, N-(2,6-dioxopiperidin-3-yl)-5-fluoro-1H-benzo[d]imidazole-4-carboxamide], in the test with CK1α, the “% of protein reduction based … CK1α (24 H)” value is listed as ≤25% (≤25% for 0-25% of CK1a protein reduction). For the same molecule, the “% of protein reduction based … SALL4 (24 H)” value with SALL4 is ≤25% (≤25% for 0-25% of SALL4 protein reduction). The “% of protein reduction based … IKZF 1 (24 H)” value in the test on IKZF1 is ≤25% (≤25% for 0-25% of IKZF1 protein reduction). The Ki in test [1] fell in the range of 1 to 10 µM.
Consider `O=C1CCC(NC(=O)c2cc(F)cc3[nH]cnc23)C(=O)N1` (centres unmarked) [Compound 8, N-(2,6-dioxopiperidin-3-yl)-6-fluoro-1H-benzo[d]imidazole-4-carboxamide], for which the “% of protein reduction based … CK1α (24 H)” value in the test on CK1α is given as ≤25% (≤25% for 0-25% of CK1a protein reduction). Further, the “% of protein reduction based … SALL4 (24 H)” value in the test on SALL4 is listed as ≤25% (≤25% for 0-25% of SALL4 protein reduction). Also, the “% of protein reduction based … IKZF 1 (24 H)” value with IKZF1 is given as ≤25% (≤25% for 0-25% of IKZF1 protein reduction). For the same molecule, the Ki in test [1] lay in the range of 1 to 10 µM.
With `Cc1nc2c(C(=O)NC3CCCC(=O)NC3=O)cccc2[nH]1` (centres unmarked) [Compound 20, N-(2,7-dioxoazepan-3-yl)-2-methyl-1H-benzo[d]imidazole-4-carboxamide], in the test on CK1α, the “% of protein reduction based … CK1α (24 H)” value is on record as ≤25% (≤25% for 0-25% of CK1a protein reduction). The “% of protein reduction based … SALL4 (24 H)” value with SALL4 is ≤25% (≤25% for 0-25% of SALL4 protein reduction). In addition, the “% of protein reduction based … IKZF 1 (24 H)” value in the test on IKZF1 is ≤25% (≤25% for 0-25% of IKZF1 protein reduction).
On to `O=C1CCC(NC(=O)c2cccc3[nH]c(C(F)F)nc23)C(=O)N1` (centres unmarked) [Compound 23, 2-(difluoromethyl)-N-(2,6-dioxopiperidin-3-yl)-1H-benzo[d]imidazole-7-carboxamide], for which the “% of protein reduction based … CK1α (24 H)” value in the test on CK1α is reported as ≤25% (≤25% for 0-25% of CK1a protein reduction). In addition, in the test with SALL4, the “% of protein reduction based … SALL4 (24 H)” value was ≤25% (≤25% for 0-25% of SALL4 protein reduction). Also, the “% of protein reduction based … IKZF 1 (24 H)” value with IKZF1 was ≤25% (≤25% for 0-25% of IKZF1 protein reduction). Also, the Ki in test [1] lay in the range of 1 to 10 µM.
In the same order, the values of `CC(C)Cc1nc2c(C(=O)NC3CCC(=O)NC3=O)cccc2[nH]1` (centres unmarked) [Compound 24, N-(2,6-dioxopiperidin-3-yl)-2-isobutyl-1H-benzo[d]imidazole-7-carboxamide] are ≤25% (≤25% for 0-25% of CK1a protein reduction), ≤25% (≤25% for 0-25% of SALL4 protein reduction), ≤25% (≤25% for 0-25% of IKZF1 protein reduction) and 1 to 10 µM.
Taken in the same sequence, the figures for `O=C1CCC(NC(=O)c2cccc3[nH]c(C(F)(F)F)nc23)C(=O)N1` (centres unmarked) [Compound 25, N-(2,6-dioxopiperidin-3-yl)-2-(trifluoromethyl)-1H-benzo[d]imidazole-7-carboxamide] were ≤25% (≤25% for 0-25% of CK1a protein reduction), ≤25% (≤25% for 0-25% of SALL4 protein reduction), ≤25% (≤25% for 0-25% of IKZF1 protein reduction) and under 1 µM.
As to `Cc1nc2c(C(=O)NC3CCC(=O)NC3=O)ccnc2[nH]1` (centres unmarked) [Compound 36, N-(2,6-dioxopiperidin-3-yl)-2-methyl-3H-imidazo[4,5-b]pyridine-7-carboxamide], in the test on CK1α, the “% of protein reduction based … CK1α (24 H)” value is ≤25% (≤25% for 0-25% of CK1a protein reduction). Besides, the “% of protein reduction based … SALL4 (24 H)” value in the test on SALL4 is given as ≤25% (≤25% for 0-25% of SALL4 protein reduction). In addition, in the test on IKZF1, the “% of protein reduction based … IKZF 1 (24 H)” value was ≤25% (≤25% for 0-25% of IKZF1 protein reduction). In test [1], the Ki fell in the range of 1 to 10 µM.
Taken in the same sequence, the figures for `O=C1CCC(NC(=O)c2ccnc3cc[nH]c23)C(=O)N1` (centres unmarked) [Compound 37, N-(2,6-dioxopiperidin-3-yl)-1H-pyrrolo[3,2-b]pyridine-7-carboxamide] were ≤25% (≤25% for 0-25% of CK1a protein reduction), ≤25% (≤25% for 0-25% of SALL4 protein reduction), ≤25% (≤25% for 0-25% of IKZF1 protein reduction) and 10 to 50 µM.
For `Nc1cccc2c1C(=O)N(C1CCC(=O)NC1=O)C2=O` (centres unmarked) [Pomalidomide, reference compound], the “% of CK1α protein reduction, based on densitometry values” in the test with CK1α (10 μM) and with CK1α (20 μM) was >25% (>25% for 26-74% of CK1a protein reduction) in each case. In addition, the “% of protein reduction based … CK1α (24 H)” value in the test with CK1α is recorded as >25% (>25% for 26-74% of CK1a protein reduction). In addition, the “% of SALL4 protein reduction, based on densitometry values” in the test on SALL4 (10 μM) and with SALL4 (20 μM) was ≥75% (≥75% for 75-100% of SALL4 protein reduction) throughout. Besides, the “% of protein reduction based … SALL4 (24 H)” value with SALL4 is recorded as ≥75% (≥75% for 75-100% of SALL4 protein reduction). Further, the “% of IKZF3 protein reduction based on densitometry values, IKZF3 Band I” value with IKZF3 (10 μM) and in the test with IKZF3 (20 μM) was ≥75% (≥75% for 75-100% of IKZF3 protein reduction) each time. Also, the “% of IKZF3 protein reduction based on densitometry values, IKZF3 Band II” value with IKZF3 (10 μM) and in the test with IKZF3 (20 μM) was ≥75% (≥75% for 75-100% of IKZF3 protein reduction) throughout. Besides, the “% of protein reduction based on densitometry values, IKZF3 (24 H)” value in the test on IKZF3 (summary Table 10, 24 H, 10 and 20 μM) is ≥75% (≥75% for 75-100% of IKZF3 protein reduction). The “% of IKZF1 α protein reduction based on densitometry values” in the test on IKZF1 (10 μM) and in the test with IKZF1 (20 μM) was ≥75% (≥75% for 75-100% of IKZF1 protein reduction) in each case. The “% of protein reduction based … IKZF 1 (24 H)” value with IKZF1 is reported as ≥75% (≥75% for 75-100% of IKZF1 protein reduction).
